What follows are compounds tested against T1, PI3Kγ (p101/p110γ protein) (Homo sapiens, UniProt P48736) (assay: PI3Kγ In Vitro Kinase Assay). Conditions: purified recombinant p101/p110γ with G protein β1/γ2 subunits; 20 μM ATP, 25 μM PIP2; 20 minutes at room temperature.
T1 construct: HA; made in house; host or cells: Spodoptera frugiperda (Sf9) cells, baculovirus co-infection
Assay type: biochemical
Procedure: Spodtera frugiperda cells, grown in ESF921 media, were coinfected with baculovirus expressing a glu-tagged p101 and baculovirus expressing an HA-tagged p110γ, at a 3:1 ratio of p101 baculovirus to p110γ baculovirus. Sf9 cells were grown to 1×10^7 total cells/mL in 10L bioreactors and harvested 48-72 hours post infection. Samples of infected cells were then tested for expression of p101/p110γ PI3 kinase by immunoprecipitation and Western Blot analysis methods (see below). […] NaCl was added to 150 mM, and sodium cholate was added to 1% and mixed for another 45 minutes. The lysates were clarified by centrifugation for 25 minutes at 14,000 rpm. The lysates were then loaded over anti-glu-linked Protein-G Sepaharose beads (Covance Research Products, Richmond, Calif.) using 20 mL resin/50 g cell paste. […] PI3Kγ was eluted with 6 column volumes of wash buffer that contain 100 μg/mL of a peptide that competes for binding of the glu tag. […] The fractions were stored at -80° C. until further use. Spodtera frugiperda cells were coinfected with baculovirus expressing a glu-tagged G protein β1 and baculovirus expressing a G protein […] at a 1:1 ratio of glu-tagged G protein β1 baculovirus to G protein β2 baculovirus. Sf9 cells are grown in 10 L bioreactors and harvested 48-72 hours post infection. Samples of infected cells were tested for G protein β1/β2 expression by Western Blot analysis, as described below. Cell lysates were homogenized and loaded onto a column of glu-tagged beads as in Biological Example 1 and competed off the column with a glu peptide as described in Biological Example 1. The inhibitory properties of the compounds in Table 1 were assayed in an in vitro PI3K assay. In a 96-well polypropylene plate, each well was spotted with 2 μL of […] the desired final concentration of compound in DMSO. Purified recombinant p101/p110γ protein (0.03 μg; 2.7 nM) and G protein β1/γ2 subunits (0.09 μg; 57.7 nM) for each reaction was combined in the assay buffer (30 mM HEPES, 100 mM NaCl, 1 mM EGTA, and 1 mM DTT). ATP and [γ-^32P-ATP] (0.09 μCi) were added to this mixture so that the final ATP concentration in the reaction was 20 μM. Lipid micelles were formed by sonicating phosphatidylinositol-4,5-diphosphate (PIP2), phosphatidylethanolamine (PE), and Na-cholate in the assay buffer for 10 minutes, adding MgCL2 and incubating on ice for 20 minutes, for final concentrations of 25 μM PIP2, 300 [M PE, 0.02% Na-cholate, and 10 mM MgCl2 in the reaction. The reactions were started by adding equal volumes lipid and enzyme mixture in a total volume of 50 μL, allowed to run for 20 minutes at room temperature, and stopped with 100 μL 75 mM H3PO4. The lipid product was transferred to a glass fiber filter plate and washed with 75 mM H3PO4 several times. The presence of radioactive lipid product (PIP3) was measured by adding Wallac Optiphase mix to each well and counting in a Wallac 1450 Trilux plate reader (PerkinElmer Life Sciences Inc., Boston, Mass. 02118).

T1 sequence (P48736 whole entry, species assumed): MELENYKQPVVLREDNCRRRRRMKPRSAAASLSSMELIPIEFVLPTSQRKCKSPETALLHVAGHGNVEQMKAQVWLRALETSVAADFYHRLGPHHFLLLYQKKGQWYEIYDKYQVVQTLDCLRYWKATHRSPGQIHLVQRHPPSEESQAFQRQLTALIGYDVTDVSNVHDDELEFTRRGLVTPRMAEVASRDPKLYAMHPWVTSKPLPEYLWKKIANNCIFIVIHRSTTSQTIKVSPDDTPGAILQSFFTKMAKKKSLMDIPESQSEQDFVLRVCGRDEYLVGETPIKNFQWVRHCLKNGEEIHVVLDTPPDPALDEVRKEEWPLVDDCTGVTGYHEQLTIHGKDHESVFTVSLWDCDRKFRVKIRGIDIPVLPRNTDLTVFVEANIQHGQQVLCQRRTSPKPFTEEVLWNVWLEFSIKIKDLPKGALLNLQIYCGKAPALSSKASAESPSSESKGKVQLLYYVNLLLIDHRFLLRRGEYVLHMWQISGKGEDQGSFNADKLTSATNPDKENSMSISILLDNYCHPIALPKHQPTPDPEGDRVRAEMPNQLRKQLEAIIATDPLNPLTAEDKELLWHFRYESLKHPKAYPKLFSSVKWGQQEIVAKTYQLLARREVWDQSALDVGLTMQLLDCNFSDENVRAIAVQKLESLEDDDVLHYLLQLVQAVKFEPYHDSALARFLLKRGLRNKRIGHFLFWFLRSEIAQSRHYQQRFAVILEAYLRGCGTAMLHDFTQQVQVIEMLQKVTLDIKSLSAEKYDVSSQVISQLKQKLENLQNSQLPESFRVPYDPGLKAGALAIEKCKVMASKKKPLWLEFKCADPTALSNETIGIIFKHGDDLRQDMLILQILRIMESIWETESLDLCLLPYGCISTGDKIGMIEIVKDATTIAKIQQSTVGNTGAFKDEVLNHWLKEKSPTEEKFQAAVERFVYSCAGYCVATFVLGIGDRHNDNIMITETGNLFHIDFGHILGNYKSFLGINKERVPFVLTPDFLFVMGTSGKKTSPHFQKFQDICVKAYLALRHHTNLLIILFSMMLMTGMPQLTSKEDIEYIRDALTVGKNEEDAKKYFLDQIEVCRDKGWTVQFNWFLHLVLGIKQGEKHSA
T1 sequence (Q8WYR1 whole entry partner, species assumed): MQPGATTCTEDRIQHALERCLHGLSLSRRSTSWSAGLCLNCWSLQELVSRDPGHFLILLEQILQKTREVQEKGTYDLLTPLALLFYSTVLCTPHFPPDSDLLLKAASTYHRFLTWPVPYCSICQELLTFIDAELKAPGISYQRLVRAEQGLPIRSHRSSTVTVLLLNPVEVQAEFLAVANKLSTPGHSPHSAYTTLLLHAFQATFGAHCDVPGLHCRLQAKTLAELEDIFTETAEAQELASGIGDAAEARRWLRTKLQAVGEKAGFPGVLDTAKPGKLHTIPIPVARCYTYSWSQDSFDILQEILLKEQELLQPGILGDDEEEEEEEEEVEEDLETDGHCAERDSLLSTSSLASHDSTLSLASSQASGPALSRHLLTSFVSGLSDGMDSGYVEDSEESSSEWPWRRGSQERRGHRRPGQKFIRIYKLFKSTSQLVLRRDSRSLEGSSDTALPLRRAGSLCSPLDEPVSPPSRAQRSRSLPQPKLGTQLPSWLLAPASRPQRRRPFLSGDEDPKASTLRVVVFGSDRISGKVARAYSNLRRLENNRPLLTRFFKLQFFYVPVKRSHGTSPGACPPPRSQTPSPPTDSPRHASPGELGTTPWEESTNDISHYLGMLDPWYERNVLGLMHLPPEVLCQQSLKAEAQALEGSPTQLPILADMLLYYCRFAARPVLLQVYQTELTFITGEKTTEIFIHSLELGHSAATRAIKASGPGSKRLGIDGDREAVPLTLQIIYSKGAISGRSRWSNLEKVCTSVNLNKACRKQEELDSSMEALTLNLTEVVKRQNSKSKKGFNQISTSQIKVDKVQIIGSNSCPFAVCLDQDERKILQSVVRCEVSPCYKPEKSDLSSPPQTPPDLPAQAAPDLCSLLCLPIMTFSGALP

| IC50 [nM] | Compound |
| --- | --- |
| 26 | CC(C)(C)c1cc(CN2C(=O)COc3ccc(C=C4SC(=S)NC4=O)cc32)cc(C(=O)NCC(=O)O)c1 [Example 60, {3-tert-Butyl-5-[3-oxo-6-(4-oxo-2-thioxo-thiazolidin-5-ylidenemethyl)-2,3-dihydro-1,4-benzoxazin-4-ylmethyl]-benzoylamino}-acetic acid] |
| 11 | COC(C)(C)c1cc(CN2C(=O)COc3ccc(/C=C4\SC(=S)NC4=O)cc32)cc(C(C)(C)C)c1 [Example 283, 4-[3-tert-Butyl-5-(1-methoxy-1-methyl-ethyl)-benzyl]-6-[4-oxo-2-thioxo-thiazolidin-(5Z)-ylidenemethyl]-4H-benzo[1,4]oxazin-3-one] |
| 21 | Cc1cc(CN2C(=O)COc3ccc(C=C4SC(=S)NC4=O)cc32)c(C)o1 [Example 317, 4-(2,5-Dimethyl-furan-3-ylmethyl)-6-(4-oxo-2-thioxo-thiazolidin-5-ylidenemethyl)-4H-benzo[1,4]oxazin-3-one] |
| 3 | O=C1NC(=O)C(=Cc2ccc3c(c2)N(Cc2ccccc2)C(=O)CO3)S1 [Example 202, 5-(4-Benzyl-3-oxo-3,4-dihydro-2H-1,4-benzoxazin-6-ylmethylene)-thiazolidine-2,4-dione] |
| 319 | C[C@@H]1Oc2ccc(C=C3SC(=S)NC3=O)cc2N(Cc2ccccc2)C1=O [Example 18, (S)-4-Benzyl-2-methyl-6-(4-oxo-2-thioxo-thiazolidin-5-ylidenemethyl)-4H-1,4-benzoxazin-3-one] |
| 8 | O=C1NC(=S)S/C1=C\c1ccc2c(c1)N(Cc1ccc(C(=O)N3CCOCC3)cc1)C(=O)CO2 [Example 281, 4-[4-(Morpholine-4-carbonyl)-benzyl]-6-[4-oxo-2-thioxo-thiazolidin-(5Z)-ylidenemethyl]-4H-benzo[1,4]oxazin-3-one] |
| 175 | O=C1COc2ccc(C=C3OC(=O)NC3=O)cc2N1 [Example 203, 5-(3-Oxo-3,4-dihydro-2H-1,4-benzoxazin-6-ylmethylene)-oxazolidine-2,4-dione] |
| 70 | O=C1NC(=O)/C(=C/c2ccc3c(c2)N(Cc2cc(C(F)(F)F)cc(C(F)(F)F)c2)C(=O)CO3)S1 [Example 272, 5-[1-[4-(3,5-Bis-trifluoromethyl-benzyl)-3-oxo-3,4-dihydro-2H-benzo[1,4]oxazin-6-yl]-meth-(Z)-ylidene]-thiazolidine-2,4-dione] |
| 7 | O=C1NC(=S)SC1=Cc1ccc2c(c1)N(CCCc1ccccc1)C(=O)CO2 [Example 160, 6-(4-Oxo-2-thioxo-thiazolidin-5-ylidenemethyl)-4-(3-phenyl-propyl)-4H-1,4-benzoxazin-3-one] |
| 20 | CN(C)S(=O)(=O)c1cccc(CN2C(=O)COc3ccc(C=C4SC(=O)NC4=O)cc32)c1 [Example 256, 3-[6-(2,4-Dioxo-thiazolidin-5-ylidenemethyl)-3-oxo-2,3-dihydro-1,4-benzoxazin-4-ylmethyl]-N,N-dimethyl-benzenesulfonamide] |
| 49 | O=C1NC(=S)SC1=Cc1ccc2c(c1)N(Cc1ccccn1)C(=O)CO2 [Example 147, 6-(4-Oxo-2-thioxo-thiazolidin-5-ylidenemethyl)-4-pyridin-2-ylmethyl-4H-benzo[1,4]oxazin-3-one] |
| 19 | Cc1cc(CN2C(=O)COc3ccc(C=C4SC(=S)NC4=O)cc32)cc(-c2nccs2)c1 [Example 119, 4-(3-Methyl-5-thiazol-2-yl-benzyl)-6-(4-oxo-2-thioxo-thiazolidin-5-ylidenemethyl)-4H-benzo[1,4]oxzain-3-one] |
| 8 | O=C1NC(=S)SC1=Cc1ccc2c(c1)N(Cc1ccccc1SC(F)(F)F)C(=O)CO2 [Example 169, 6-(4-Oxo-2-thioxo-thiazolidin-5-ylidenemethyl)-4-(2-trifluoromethylsulfanyl-benzyl)-4H-1,4-benzoxazin-3-one] |
| 895 | Cc1cc(C=C2SC(=S)NC2=O)cc2c1OCC(=O)N2Cc1cc(C(C)(C)C)nc(C(C)(C)C)c1 [Example 221, 4-(2,6-Di-tert-butyl-pyridin-4-ylmethyl)-8-methyl-6-(4-oxo-2-thioxo-thiazolidin-5-ylidenemethyl)-4H-1,4-benzoxazin-3-one] |
| 12 | CC(C)(C)c1cc(CN2C(=O)COc3ccc(C=C4SC(=S)NC4=O)cc32)cc(C(C)(C)C)c1 [Example 32, 4-(3,5-Di-tert-butyl-benzyl)-6-(4-oxo-2-thioxo-thiazolidin-5-ylidenemethyl)-4H-1,4-benzoxazin-3-one] |
| 20 | O=C1NC(=S)SC1=Cc1cc(Cl)c2c(c1)N(Cc1ccc(CN3CCCCC3)cc1)C(=O)CO2 [Example 79, 8-Chloro-6-(4-oxo-2-thioxo-thiazolidin-5-ylidenemethyl)-4-(4-piperidin-1-ylmethyl-benzyl)-4H-1,4-benzoxazin-3-one; compound with Toluene-4-sulfonic acid] |
| 80 | Cc1cc(CN2C(=O)COc3ccc(C=C4SC(=S)NC4=O)cc32)n(C)n1 [Example 339, 4-(2,5-Dimethyl-2H-pyrazol-3-ylmethyl)-6-(4-oxo-2-thioxo-thiazolidin-5-ylidenemethyl)-4H-1,4-benzoxazin-3-one] |
| 10 | CC(C)(C)c1cc(CO)cc(CN2C(=O)COc3c(F)cc(/C=C4\SC(=S)NC4=O)cc32)c1 [Example 284, 4-(3-tert-Butyl-5-hydroxymethyl-benzyl)-8-fluoro-6-[4-oxo-2-thioxo-thiazolidin-(5Z)-ylidenemethyl]-4H-benzo[1,4]oxazin-3-one] |
| 35 | O=C1NC(=S)SC1=Cc1ccc2c(c1)N(CC1CCCCC1)C(=O)CO2 [Example 143, 4-Cyclohexylmethyl-6-(4-oxo-2-thioxo-thiazolidin-5-ylidenemethyl)-4H-benzo[1,4]oxazin-3-one] |
| 3740 | CC(C)(C)c1cc(CN2C(=O)CSc3ccc(C=C4SC(=S)NC4=O)cc32)cc(C(C)(C)C)c1 [Example 82, 4-(3,5-Di-tert-butyl-benzyl)-6-(4-oxo-2-thioxo-thiazolidin-5-ylidenemethyl)-4H-1,4-benzothiazin-3-one] |
| 3 | CC(C)(C)c1ccc(CN2C(=O)COc3ccc(C=C4SC(=S)NC4=O)cc32)cc1 [Example 184, 4-(4-tert-Butyl-benzyl)-6-(4-oxo-2-thioxo-thiazolidin-5-ylidenemethyl)-4H-1,4-benzoxazin-3-one] |
| 15 | COc1cc(CCCN2C(=O)COc3ccc(C=C4SC(=S)NC4=O)cc32)cc(OC)c1OC [Example 124, 6-(4-Oxo-2-thioxo-thiazolidin-5-ylidenemethyl)-4-[3-(3,4,5-trimethoxy-phenyl)-propyl]-4H-benzo[1,4]oxazin-3-one] |
| 10 | CC(C)Sc1cccc(CN2C(=O)COc3ccc(C=C4SC(=S)NC4=O)cc32)c1 [Example 254, 4-(3-Isopropylsulfanyl-benzyl)-6-(4-oxo-2-thioxo-thiazolidin-5-ylidenemethyl)-4H-1,4-benzoxazin-3-one] |
| 39 | CC(CN1C(=O)COc2ccc(C=C3SC(=S)NC3=O)cc21)c1ccccc1 (stereo not drawn) [Example 173, 6-(4-Oxo-2-thioxo-thiazolidin-5-ylidenemethyl)-4-(2-phenyl-propyl)-4H-1,4-benzoxazin-3-one] |
| 21 | CC(=O)Oc1ccc(CN2C(=O)COc3ccc(C=C4SC(=S)NC4=O)cc32)cc1 [Example 248, Acetic acid 4-[3-oxo-6-(4-oxo-2-thioxo-thiazolidin-5-ylidenemethyl)-2,3-dihydro-1,4-benzoxazin-4-ylmethyl]-phenyl ester] |
| 3 | CN1CCN(Cc2ccc(CN3C(=O)COc4ccc(C=C5SC(=O)NC5=O)cc43)cc2)CC1 [Example 228, 5-{4-[4-(4-Methyl-piperazin-1-ylmethyl)-benzyl]-3-oxo-3,4-dihydro-2H-1,4-benzoxazin-6-ylmethylene}-thiazolidine-2,4-dione] |
| 160 | Cc1cc(C=C2SC(=S)NC2=O)cc2c1OCC(=O)N2 [Example 154, 8-Methyl-6-(4-oxo-2-thioxo-thiazolidin-5-ylidenemethlyl)-4H-benzo[1,4]oxazin-3-one] |

Reference: US7205295B2, “Benzoxazin-3-ones and derivatives thereof as therapeutic agents” (Warner-Lambert Company LLC, priority 2002, dated 2007)
